Columns and labels:
[1] = target: T1, LRAT (Rattus norvegicus, UniProt Q9JI61); experiment: Retinyl ester production by LRAT in rat RPE microsomes; assay type: biochemical; conditions: 1 mM PBN
T1 construct: from tissue; host or cells: rat eyecup/RPE microsomes
T1 sequence (Q9JI61 1-231): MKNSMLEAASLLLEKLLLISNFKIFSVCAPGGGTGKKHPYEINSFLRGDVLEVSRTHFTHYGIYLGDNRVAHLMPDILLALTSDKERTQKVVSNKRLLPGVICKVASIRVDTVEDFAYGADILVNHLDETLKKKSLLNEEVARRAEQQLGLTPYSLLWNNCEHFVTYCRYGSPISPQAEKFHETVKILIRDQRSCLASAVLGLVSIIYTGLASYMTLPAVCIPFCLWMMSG
Method: Isomerohydrolase activity assay and PBN inhibition—Rats were sacrificed, and eyes were enucleated and dissected to remove the anterior part including lens, vitreous, and retina. The remaining eyecups containing RPE were sonicated 3 times for 20 seconds in a cold 0.32 M sucrose/0.1 M sodium phosphate buffer (pH 7.4). The homogenate was centrifuged (20 minutes, 20,000 g) to sediment sclera, unbroken cells, nuclei and mitochondria. The obtained supernatant was recentrifuged (1 hour, 100,000 g), and the microsomal pellet was resuspended in 10 mM 1,3-bis[tris(hydroxymethyl)-methylamino]propane (BTP), (pH 8.0) and 100 mM NaCl, and stored at −80° C. All-trans-[11,12-^3H]-retinol (1 mCi/ml, 45.5 Ci/mmol, American Radiolabeled Chemical, Inc., St. Louis, Mo.) in N,N-dimethyl formamide was used as the substrate for the isomerohydrolase assay. […] The upper layer was collected, and the generated retinoids were analyzed by normal phase HPLC as described (38). […] The isomerohydrolase activity was calculated from the area of the 11-cis-retinol peak using Radiomatic 610TR software (Perkin Elmer, Boston, Mass.) with synthetic 11-cis-[^3H]-retinol as a standard. […] The inhibition constant for PBN was calculated from the following equation: […] where [I]=concentration of PBN, Vm^i=maximal velocity in the presence of Vm=maximal velocity in the absence of PBN. […]

[2] = test system: rhodopsin; experiment: Rhodopsin regeneration after bleach in rats, IP nitrone; assay type: in vivo, rat
Method: FIG. 10 graphically illustrates the effects of three PBN analogs of rhodopsin regeneration. Rhodopsin content was measured as nmole/retina following the procedure as in Mandal et al. (J Biol. Chem. 2011. 286 (37):32491-501). After injection with PBN derivatives or vehicles (saline), rats were left in room light for 2 hours (light adapted or LA) and then moved to dark. At 2.5 hours dark adaptation (DA), retinas were harvested. DA-Control, Dark adapted (12 h) control retina without any treatment to show normal rhodopsin content.
Measurement of rhodopsin regeneration—To measure the effect of PBN on the rate of rhodopsin regeneration, dark-adapted rats were injected intraperitoneally with PBN (50 mg/kg) or PBS 0.5 hour prior to a 2 hour bleach in room light (˜400 lux). Immediately following the bleach (time=0 minutes), a group of PBN- and vehicle-treated rats were killed, and retinas were removed and snap frozen. The remaining rats were dark-adapted, and retinas were collected under dim red light at 45, 90, and 180 minutes after the bleach.
Rhodopsin measurements were performed as described previously (2,36) with slight modification. Briefly, under dim red light, each retina was homogenized in 450 μl of buffer containing 10 mM Tris-HCl (pH 7.4), 150 mM NaCl, 1 mM EDTA, 2% (w/v) octylglucoside, and 50 mM hydroxylamine. Homogenates were centrifuged at 16,000 g, and soluble lysates were scanned from 270-800 nm in a spectrophotometer (Ultrospec 3000 UV/Vis Spectrophotometer, GE Healthcare, Piscataway, N.J.). Samples were then bleached under room light for 10 minutes and scanned again. The difference spectra at 500 nm between pre- and post-bleached samples were used to determine rhodopsin content using a molar extinction coefficient of […] (37). The values were normalized to the total lysate volume, and data are presented as rhodopsin content/retina.

CC(C)(C)/[N+]([O-])=C/c1ccccc1 [Compound 1, α-phenyl-N-tert-butyl nitrone]
LRAT inhibition (production of retinyl ester) [1]: not inhibited | effect on rhodopsin regeneration ([2]; 50 mg/kg IP, 2.5 hours in the dark (FIG. 10)): blocked rhodopsin regeneration significantly | rhodopsin regenerated after bleach ([2]; 50 mg/kg IP, 45 minutes in darkness after 2 h bleach): virtually no rhodopsin was regenerated | bleachable rhodopsin recovered ([2]; 50 mg/kg IP, dark adaptation for 3 hours after 2 h bleach): ~30% | inhibition at 50 mg/kg ([2]; Rattus norvegicus, rats, 50 mg/kg IP, 2 h room light then 2.5 h dark adaptation): 83% | rhodopsin content of rats maintained in darkness ([2]; fully dark-adapted rats, mean±SEM): 1.38±0.14 nmol/eye
